Laboratory results reported in ChEMBL document CHEMBL3098110, “Modulating the interaction between CDK2 and cyclin A with a quinoline-based inhibitor” (Bioorg Med Chem Lett, 2014).

Experiments:
[1] = target: T1, Cyclin-dependent kinase 2 (Homo sapiens, UniProt P24941)
Description: Inhibition of CDK2 (unknown origin)-cyclin A interaction preincubated for 30 mins at room temperature followed by incubation at 40 degC for 30 mins by SDS-PAGE analysis

[2] = target: T1, Cyclin-dependent kinase 2; remark: listed apart in the source
[3] = target: T1, Cyclin-dependent kinase 2; remark: listed apart in the source
Description: Displacement of B-Alexa-Fluor647 from CDK2 (unknown origin) by fluorescence polarization assay

[4] = target: T1, Cyclin-dependent kinase 2; remark: listed apart in the source
Description: Binding affinity to human CDK2 by isothermal titration calorimetric analysis

| SMILES | IC50 [1] [nM] | Kd [2] [nM] | Ki [3] [nM] | Kd [4] [nM] |
| --- | --- | --- | --- | --- |
| COC(=O)[C@H](Cc1ccc(F)cc1)NC(=O)c1cc(C(=O)O)c2cc(-c3cccc(C(F)(F)F)c3)ccc2n1 | > 10000 | 4000 | 2500 |  |
| COC(=O)[C@H](Cc1ccc(O)cc1)NC(=O)c1cc(C(=O)O)c2cc(N3CCOCC3)ccc2n1 | > 10000 | 2400 | 2800 |  |
| COC(=O)[C@H](Cc1ccc(O)cc1)NC(=O)c1cc(C(=O)O)c2cc(-c3cccc(C(F)(F)F)c3)ccc2n1 | > 10000 | 40 | < 100 | 50 |
| O=C(NCCc1ccc(O)cc1)c1cc(C(=O)O)c2cc(-c3cccs3)ccc2n1 | > 10000 | > 40000 | > 40000 |  |
| O=C(N[C@@H](Cc1ccc(O)cc1)C(=O)O)c1cc(C(=O)O)c2cc(-c3cccc(C(F)(F)F)c3)ccc2n1 | > 10000 | > 10000 | 12000 |  |
| C[C@H](Cc1ccc(O)cc1)NC(=O)c1cc(C(=O)O)c2cc(-c3cccc(C(F)(F)F)c3)ccc2n1 | > 10000 | 4000 | 2500 |  |
| COC(=O)[C@H](Cc1cccc(O)c1)NC(=O)c1cc(C(=O)O)c2cc(-c3cccc(C(F)(F)F)c3)ccc2n1 | > 10000 | > 40000 | > 40000 |  |
| COC(=O)[C@H](Cc1ccc(O)cc1)NC(=O)c1cc(C(=O)NS(C)(=O)=O)c2cc(-c3cccs3)ccc2n1 | > 10000 | > 40000 | > 40000 |  |
| CCCCCCc1ccc2nc(C(=O)N[C@@H](Cc3ccc(O)cc3)C(=O)OC)cc(C(=O)O)c2c1 | > 10000 | 76 | < 100 |  |
| COC[C@H](Cc1ccc(O)cc1)NC(=O)c1cc(C(=O)O)c2cc(-c3cccc(C(F)(F)F)c3)ccc2n1 | > 10000 | 240 | 100 |  |
| COC(=O)[C@H](Cc1ccc(O)cc1)NC(=O)c1cc(CO)c2cc(-c3cccc(C(F)(F)F)c3)ccc2n1 | > 10000 | > 40000 | > 40000 |  |
| COC(=O)[C@H](Cc1ccc(O)cc1)NC(=O)c1cc(C(=O)O)c2cc(-c3cccs3)ccc2n1 | > 10000 | 1100 | 900 | 1000 |
| CCC[C@H](Cc1ccc(O)cc1)NC(=O)c1cc(C(=O)O)c2cc(-c3cccc(C(F)(F)F)c3)ccc2n1 | > 10000 | 400 | 300 |  |
| COC(=O)[C@H](Cc1ccc(O)cc1)NC(=O)c1cc(C(N)=O)c2cc(-c3cccs3)ccc2n1 | > 10000 | > 40000 | > 40000 |  |
| COC(=O)[C@H](Cc1ccc(OC)cc1)NC(=O)c1cc(C(=O)O)c2cc(-c3cccc(C(F)(F)F)c3)ccc2n1 | > 10000 | > 40000 | > 40000 |  |

Continued, values first:

| IC50 [1] [nM] | Kd [2] [nM] | Ki [3] [nM] | Kd [4] [nM] | SMILES |
| --- | --- | --- | --- | --- |
| > 10000 | 5 | < 100 |  | COC(=O)[C@H](Cc1ccc(O)cc1)NC(=O)c1cc(C(=O)O)c2cc(/C=C/c3ccc(Cl)cc3)ccc2n1 |
| > 10000 | 300 | 100 |  | CNC(=O)[C@H](Cc1ccc(O)cc1)NC(=O)c1cc(C(=O)O)c2cc(/C=C/c3ccc(Cl)cc3)ccc2n1 |
| > 10000 | 12000 | 10000 |  | COC(=O)[C@H](Cc1ccc(O)cc1)NC(=O)c1cc(C(=O)O)c2cc(-c3ccccc3)ccc2n1 |
| > 10000 | 320 | 200 |  | COC(=O)[C@H](Cc1ccc(O)cc1)NC(=O)c1cc(C(=O)O)c2cc(-c3cc(Cl)cc(Cl)c3)ccc2n1 |
| > 10000 | 350 | 160 |  | CN(C)C(=O)[C@H](Cc1ccc(O)cc1)NC(=O)c1cc(C(=O)O)c2cc(/C=C/c3ccc(Cl)cc3)ccc2n1 |
| > 10000 | 900 | 900 |  | COC(=O)[C@H](Cc1ccc(O)cc1)NC(=O)c1cc(C(=O)O)c2cc(-c3ccc(Cl)cc3)ccc2n1 |
| > 10000 | 25 | < 100 |  | COC[C@H](Cc1ccc(O)cc1)NC(=O)c1cc(C(=O)O)c2cc(/C=C/c3ccc(Cl)cc3)ccc2n1 |
| > 10000 | 48 | < 100 | 55 | COC(=O)[C@H](Cc1ccc(O)cc1)NC(=O)c1cc(C(=O)O)c2cc(CCc3ccc(Cl)cc3)ccc2n1 |
